Values quoted from earlier work as cited in PMC9862186 (International Journal of Molecular Sciences, 2023).

Settings: rats, cited from earlier work

## C=CCc1ccc(O)c(OC)c1 [Eugenol]
Iv eugenol
  t1/2 of the second elimination phase: 13 to 20 min
Oral 40 mg/kg
  Cmax: about 0.25 μg/mL
